Entries after “also recorded” stand apart in the source; their conditions may differ.
Columns and labels:
Format in all cases: in vivo, LE rats
[1] = system: LE rat self-administration model; assay: Environmental cue-induced relapse test in WIN55,212-2 self-administration model; details: rimonabant 2 mg/kg, implants 4 tablets/rat
Method: (§1) In each self-administration process, the effective lever was activated, and the injection system performed automatic administration ([…]). Each injection was about 0.1 mL, with a duration of 4 s-6 s. Meanwhile, each injection would be accompanied by the effective lever light turning on for 10 s and the room light turning off for 20 s. […] Data of activating the ineffective lever was recorded, but no drug injection was given. During the training, the computer automatically recorded the number of effective and ineffective lever presses and the number of injections. During the training, food was restricted to 12 g.

[2] = system: LE rat self-administration model; assay: Drug (WIN55,212-2) and environmental cue-induced relapse test in self-administration model; details: rimonabant 2 mg/kg, implants 4 tablets/rat
Method: The rats received 2 h of environmental regression again. During the regression, only the spatial environment during the self-administration training was presented, without other clues such as lights and pump sounds as well as drug injections. The computer automatically recorded the number of behavioral responses of rats, and the regression was continued until reaching the criteria.
In the rimonabant group, rats were administered the rimonabant injection (2 mg/kg, ip) 15 min before the test through intraperitoneal injection at a dose of 2 mg per kilogram of body weight. In the control group, rats were administered normal saline 15 min before the test. In the implant administration groups, there would be no administration. All rats were administered cannabis (WIN55,212-2 injection 0.3 mg/kg, ip) through intraperitoneal injection at a dose of […] of body weight, and then a 2-h drug and environmental cue-induced relapse test was immediately performed. The cues were consistent with those of self-administration training, including levers and syringe pump sound, but no drug in the syringe pump. The number of injections and effective lever pressing data were recorded by the computer.
In the control group, rats were administered normal saline 15 min before the test, and in the implant groups, there would be no administration. All rats were administered WIN55,212-2 (0.3 mg/kg, i.p) through intraperitoneal administration, and then a 2-h drug and environmental cue-induced relapse test was immediately performed. The cues were consistent with those of self-administration training, including levers and syringe pump sound, but no drug in the syringe pump. The number of injections and effective lever pressing data were recorded by the computer.

[3] = system: LE rat self-administration; assay: Addiction formation: WIN55,212-2 self-administration training
Method: as §1
In the control group and rimonabant group, sham operations were performed. After 3 days of postoperative care, addiction formation training was started on the fourth day.
In the control group and rimonabant group, rats were administered the corresponding compound 15 min before the daily training. The rimonabant was at a dosage of 2 mg/kg, i.p. In the control group, rats were administered normal saline, and in the implant administration groups, there would be no administration. The training operation was the same as the self-administration training in example 1. During the training, the computer automatically recorded the number of effective and ineffective lever presses and the number of injections. During the training, food was restricted to 12 g.

[4] = system: LE rat self-administration; assay: Regression of drug-seeking behavior after self-administration training
Method: After the establishment of the self-administration model, the rats received 2 h of environmental regression for each round of regression training. During the regression, only the spatial environment and lever during the training were presented, without other clues such as lights and pump sounds as well as drug injections. The computer automatically recorded the number of behavioral responses of rats, and the rats reached the regression criteria (i.e., the total number of effective lever presses decreased to 20% of the total number of effective lever presses on the first day of the regression training or less than 10 times).

[5] = 2 h environmental cue-induced relapse test, n = 10
[6] = last regression before cue test, n = 10
[7] = 2 h test after WIN55,212-2 ip, n = 10
[8] = re-regression before cue + drug test, n = 10
[9] = female LE rats, rimonabant 2 mg/kg, implants 4 tablets/rat, n = 10

With `Cc1c(C(=O)NN2CCCCC2)nn(-c2ccc(Cl)cc2Cl)c1-c1ccc(Cl)cc1` [Rimonabant] the “Number of effective lever presses, Cue priming” value [1, 5] was 57.70 ± 10.27, the “Number of ineffective lever presses, Cue priming” value [1, 5] was 12.10 ± 3.33 and the “Number of effective lever presses, Last-Ext” value [1, 6] was 6.80 ± 1.62. For the same compound, the “Number of ineffective lever presses, Last-Ext” value [1, 6] was 3.10 ± 0.86, the “cue-induced relapse behavior (number of effective lever presses compared with the control group), in words” value [1] was “no significant inhibition effect; also recorded: not significant” and the “Number of effective lever presses, Cue + drug priming” value [2, 7] was 63.50 ± 16.15. The “Number of ineffective lever presses, Cue + drug priming” value [2, 7] was 8.10 ± 2.08, the “Number of effective lever presses, Re-Ext” value [2, 8] was 10.30 ± 2.72 and the “Number of ineffective lever presses, Re-Ext” value [2, 8] was 5.20 ± 3.0. The “cue and drug-induced relapse behavior (number of effective lever presses compared with the control group), in words” value [2] was “no significant inhibition effect; also recorded: not significant”, the “inhibition of the increase in the number of effective lever presses caused by addiction formation of win55,212-2, in words” value ([3]; compared with the control group) was “significantly inhibited; also recorded: significant inhibition effect” and the “Addiction formation (26 days): Number of effective lever presses” value [3, 9] was 45.70 ± 8.21. For the same compound, the “Addiction formation (26 days): Number of ineffective lever presses” value [3, 9] was 9.49 ± 1.05, the “effect on the regression process of cannabis addiction, in words” value ([4]; compared with other groups) was “may accelerate the regression process and reduce the regression days” and the “Regression (13 sessions): First stabilization” value [4, 9] was 7 days. The “Regression (13 sessions): Number of effective lever presses” value [4, 9] was 9.27 ± 2.21.

Reference: patent publication US20250221983A1, “PHARMACEUTICAL COMPOSITION FOR PREVENTING RELAPSE INTO CANNABIS USE AND APPLICATION THEREOF” (Shenzhen ScienCare Pharmaceutical Co., Ltd, priority 2023, published 2025)
